Experiments:
HE cells [1] = assay: HE subculture with metabolic regulators, flow cytometry of hematopoietic output; format: cell-based, human
Description: The RB9-CB1 human iPSC line (Woods, N.-B. et al. Brief report: efficient generation of hematopoietic precursors and progenitors from human pluripotent stem cell lines. Stem Cells 29, 1158-1164 (2011)) was co-cultured with mouse embryonic fibroblasts (MEFs, Millipore), passaged every six days and processed to form embryoid bodies (EBs) as described previously (Guibentif, C. et al. Single-Cell Analysis Identifies Distinct Stages of Human Endothelial to-Hematopoietic Transition. Cell Reports 19, 10-19 (2017)). The differentiation protocol used in this study was previously described (Ditadi, A. & Sturgeon, C. M. Directed differentiation of definitive hemogenic endothelium and hematopoietic progenitors from human pluripotent stem cells. Methods 101, 65-72 (2016)), however, small modifications were made to induce both primitive and definitive hematopoiesis, as indicated below and in FIG. 6, a. Newly-formed EBs were first kept in SFD medium supplemented with 1 ng/ml Activin A (on days 0-2) and 3 μM CHIR99021 (on day 2 only). At day 3, media was switched to “Day 3-SP34” medium supplemented with 1 ng/ml Activin A (on day 3 only) and 3 μM CHIR99021 (on day 3 only) until day 6. On day 6, media was replaced by “Day 6-SP34” medium, until day 8. In some experiments where indicated, to obtain a higher yield of HSC-like cells, EBs were kept until day 10: in this case, EBs were plated onto Matrigel (8 μg/cm2, Corning)-coated dishes on day 8 and kept until day 10. Media was changed every day, except on days 5 and 7. On day 8 or 10 (as indicated), EBs were singularized with 5-6 rounds of 5-minute incubations with TryPLE Express (Thermo Fisher Scientific). CD34^+ cells were selected using the human CD34 MicroBead kit (Miltenyi Biotec) and stained with CD34-FITC, CD73-PE, VECad-PerCPCy5.5, CD38-PC7, CD184-APC, CD45-AF700, CD43-APCH7, GPA-eF450, CD90-BV605 and the viability marker 7AAD in order to sort HE (CD34^+CD43^−CXCR4^−CD73^−CD90^+VECad^+), EHT (CD34^+CD43^intCXCR4^−CD73^−CD90^+VECad^+) and HSC-like (CD34^+CD43^+CD90^+CD38^−) cells, according to previously described markers (Guibentif, C. et al. Single-Cell Analysis Identifies Distinct Stages of Human Endothelial to-Hematopoietic Transition. Cell Reports 19, 10-19 (2017); Ditadi, A. et al. Human definitive haemogenic endothelium and arterial vascular endothelium represent distinct lineages. Nat Cell Biol 17, 580-591 (2015); and Choi, K.-D. et al. Identification of the Hemogenic Endothelial Progenitor and Its Direct Precursor in Human Pluripotent Stem Cell Differentiation Cultures. Cell Reports 2, 553-567 (2012)).
Sorted HE (40,000), EHT (30,000) and HSC-like (5-20,000) cells were plated onto Matrigel (16 μg/cm2, Corning)-coated 96-well flat bottom plates in HE medium with 1% penicillin-streptomycin and kept in a humidified incubator at 37° C., 5% C02, 4% 02 overnight. The following day (day 0), wells were washed twice with PBS and fresh HE medium was added, together with 2-DG (1 mM), UK5099 (10 μM), DCA (3 mM or 10 mM), TSA (60 nM), TCP (300 nM), ACSS2i (5 μM), C646 (10 μM), CP-640186 (5 μM) or Atorvastatin (0.5 μM), where indicated. Media was changed and drugs were added every 2 days and cells were kept in a humidified incubator at 37° C., 5% CO2, 20% O2 for 6-7 days. Pictures were taken using an Olympus IX70 microscope equipped with a CellSens DP72 camera and CellSens Standard 1.6 software (Olympus). For single cell subcultures, single HE cells were directly sorted with a BD FACSAriaIII onto OP9-DL1 stroma in flat-bottom 96-well plates with 120 μl OP9 medium (OptiMEM medium with Glutamax (Invitrogen) with 10% FCS, 1% penicillin-streptomycin solution (Thermo Fisher Scientific) and 1% 2-mercaptoethanol (Invitrogen)) with SCF, IL-6, IL-11, IGF1 and EPO, and with or without 10 μM UK, or 3 mM or 10 mM DCA. The cells were kept in a humidified incubator at 37° C., 5% CO2, 4% O2 and media was replaced every 4 days. […]

HE cells [2] = assay: Colony forming unit assay of subcultured HE cells; format: cell-based, human
Protocol: Subcultured HE cells were treated with StemPro Accutase Cell Dissociation Reagent for 2 minutes at 37° C. and dissociated cells were resuspended in 3 ml Methocult H4230 (STEMCELL Technologies, France) (prepared according to manufacturer's instructions, with 20 mL Iscove's Modified Dulbecco's Medium containing 2.5 μg hSCF, 5 μg GM-CSF, 2.5 μg IL-3 and 500 U EPO). Each mixture was divided onto 2 wells of a non-tissue culture treated 6-well plate. Following a 12-day incubation in a humidified incubator at 37° C., 5% CO2, 20% O2, colonies were morphologically distinguished and scored. For globin analysis, colonies in Methocult wells were harvested with PBS, washed thoroughly and frozen in RLT buffer with β-mercaptoethanol. Following RNA extraction and RT (Qiagen), gene expression was assessed with taqman probes by q-PCR. The taqman probes used for this assay are HBA1/2 (Hs00361191_g1), HBE1 (Hs00362216_m1), HBG2/1 (Hs00361131_g1) and KLF1 (Hs00610592_m1).

SMILES | decrease in CD43+GPA+ cells (HE cells [1]; day 6 of HE subculture, DCA 3 mM) [%] | increase in CD43+CD45+ cells / cell output (HE cells [1]; day 6 of subculture, deriving from HE, DCA 3 mM or shRNA) [%] | ratio of CFU-E colonies to the sum of CFU-G, CFU-GM and CFU-M colonies, lower than control (HE cells [2]; 6 days subculture, DCA 3 mM) | EdU incorporation (proliferation) (HE cells [1]; 24 h pulse, days 1 and 2 of subculture, UK5099 10 μM, DCA 3 mM) | frequency of HSC-like cells deriving from HE (HE cells [1]; 3 days subculture, UK5099 10 μM, DCA 3 mM) | proliferation of CD45+ cells deriving from HE (HE cells [1]; CTV, UK5099 10 μM, DCA 3 mM) | proliferation of the GPA+ population deriving from HE (HE cells [1]; CTV, day 3, UK5099 10 μM, DCA 3 mM) | CD43+GPA+ cell output (HE cells [1]; day 3 of HE subculture, UK5099 10 μM, 1-AA 4 mM, DCA 3 mM, vs control) | levels of total CD43+ cells (HE cells [1]; day 6, UK5099 10 μM, 1-AA 4 mM) | decrease in CD43+CD45+ population (HE cells [1]; day 6, deriving from HE, UK5099 10 μM) [fold] | granulocyte and macrophage colonies (CFU-G, GM and M) (HE cells [2]; 3 or 6 days of UK5099) | ratio of CFU-E colonies to the sum of CFU-G, CFU-GM and CFU-M colonies, higher than control (HE cells [2]; 6 days subculture, UK5099 10 μM) [fold] | erythroid colony (CFU-E) formation (HE cells [2]; UK5099 3 or 6 days, DCA 6-day treatment, vs untreated)
O=C(O)C(Cl)Cl [DCA, dichloroacetate] | 50 | 80 | more than 3 fold | – | – | – | – | – | – | – | – | – | –
N#CC(=Cc1cn(-c2ccccc2)c2ccccc12)C(=O)O [UK5099, 2-Cyano-3-(1-phenyl-1H-indol-3-yl)-2-propenoic acid] | – | – | – | no differences in proliferation | did not have an effect | did not have an effect | did not observe any differences | striking increase | unchanged | 2 | decreased | 20 | significantly increased
